Assay results as given in patent publication EP3632468B1, “5-IODO-4-THIO-2'-DEOXYURIDINE FOR USE AS A RADIOSENSITIZER IN RADIOTHERAPY” (Uniwersytet Gdanski, priority 2018, dated 2020).

Tests used:
Type in all cases: cell-based
[1] = tested on: human breast cancer cells - MCF-7 line; test: MTT cytotoxicity assay, MCF-7; details: MCF7, light or radiation study, 100 µM ISdU, 48 h incubation, no irradiation, read-out: MCF-7 cells viability compared to the control
Procedure: (§1) Cytotoxic activity was determined using the MTT assay after incubation of MCF-7 (CLS, Eppelheim) or HDFa (Gibco Invitrogen) cells with ISdU. The MCF-7 cells were grown in RPMI supplemented with 10% FBS and antibiotics (streptomycin and penicillin) at a concentration of 100 U·mL^-1. The HDFa cells were grown in DMEM supplemented with 10% FBS and antibiotics (streptomycin and penicillin) at the same concentration. Cells at a density of 4·10^3 per well were seeded into a 96-well plate and incubated (37°C, 5% CO2) for 24 h. Then, the medium was freshly changed, and the cells were treated with ISdU at concentrations of 0 (control), 10^-4, 5·10^-5, 10^-5, 10^-6, 10^-7 and 10^-8 M. Cells were incubated with ISdU for 24 h and 48 h. After this time, the aqueous MTT salt solution at a concentration of 4 mg·mL^-1 was added to each well. After 4 h of incubation, the medium was removed and 200 µL of dimethylsulfoxide (DMSO) was added to dissolve the formazan crystals. The absorbance was measured at 570 nm (with 660 nm taken as the reference) on an EnSpire microplate reader (PerkinElmer). […] The results were analyzed with the use of GraphPad Prism software. The statistical evaluation of treated samples and untreated controls was calculated using one-way analysis of variance (ANOVA) followed by […] multiple comparison test. […]

[2] = tested on: human dermal fibroblasts - HDFa line; test: MTT cytotoxicity assay, HDFa; details: ISdU 10^-8 to 10^-4 M, 24 h and 48 h incubation, no irradiation
Procedure: as §1

[3] = tested on: MCF-7 cells (human breast cancer cells); test: Cytometric analysis of phosphorylation of histone H2A.X (double strand break marker); details: 10^-4 M ISdU 48 h
Procedure: One of the damages caused by ISdU are double strand break of DNA, whose molecular marker is phosphorylation of histone H2A.X. To confirm the application of the compound in radiotherapy, the cytometric analysis of phosphorylation of histone H2A.X, molecular marker of double strand break of DNA was carried out.
The MCF-7 cells (human breast cancer cells) were grown up in RPMI medium supplemented with 10 % FBS (fetal bovine serum) and antibiotics (penicillin and streptomycin) at a concertation of 100 U · ml^-1. The cells were treated with ISdU at the concentration of 10^-4 M and incubated (37°C, 5% CO2) for 48 h. Upon this time, plate cultures were X-ray irradiated with doses of 1 Gy and 2 Gy, using of e.g. Cellrad X-ray cabinet, Faxitron X-ray Corporation, and incubated for 1 h in the same condition. Next, the cells were detached with solution of Accutase (Life Technologies, UK), fixed and permeabilized (fixation and permeabilization was performed by the manufacturer's protocol FlowCellect™ Histone H2A.X Phosphorylation Assay Kit, Merck). Prepared cells were analyzed by cytometric using of e.g. Guava easyCyte™, Merck. The experiment was performed in triplicated. The non-treated cells were a control.

## O=c1[nH]c(=S)c(I)cn1[C@H]1C[C@H](O)[C@@H](CO)O1 [ISdU, 5-iodo-4-thio-2'-deoxyuridine]
[1]
  viability at 100 µM: 91 ± 3%
[2]
  HDFa cell viability: a statistically significant decrease in cell viability was not observed
[3]; 1 Gy X-ray, measured 1 h after irradiation (control 26.56 ± 1.14%)
  γH2A.X positive cells: 35.15 ± 1.48%
[3]; 2 Gy X-ray, measured 1 h after irradiation (control 49.38 ± 3.8%)
  γH2A.X positive cells: 60.25 ± 2.98%
